Legend:
BTK [1] = target: T1, BTK (Homo sapiens, UniProt Q06187); test: Assay to determine BTK inactivation rate in human whole blood (ELISA of unoccupied BTK); type: cell-based; parameters: Human whole blood is obtained from StemExpress; tissue StemExpress; host or cells: human whole blood; conditions: 37° C., 5, 15, 30, 60 minutes; for kinact/KI: read-out: BTK hWB Kinact/Ki
Method: Human Whole Blood Compound Treatment and Lysis
Human whole blood is obtained from StemExpress and kept at ambient temperature until the time of the experiment. […] This is prepared fresh each experimental day. […] Compounds are reconstituted to stocks of 10 mM and are diluted in two-fold serial dilutions to generate an 8-point curve in DMSO, with the last point being DMSO only, creating a 100× dilution series. A working 10× dilution series is created using 1.0 μL of the prepared DMSO titration, 100×, into […] 1×PBS in order to keep the DMSO constant. The human whole blood is added in the volume of 225 μL per well in a new 96w v-bottom plate, where one column of eight wells is sufficient for testing one compound. For compound treatment, 25 μL of 10× dilution series in PBS is added to the 225 μL whole blood, followed by briefly pipetting up and down twice. The plates are covered with lids and incubated at 37° C. for 5, 15, 30, 60 minutes. At each timepoint, 30 μL of treated blood is pulled from each column and added to preloaded collection plates that contain 30 μL of supplemented lysis buffer and mixed briefly. The collected and lysed samples shake on rotator for 60 minutes at room temperature. These samples are used fresh for detection via ELISA, and remaining sample is frozen at −80° C. if a repeat is necessary.
ELISA: Determining Amount of Unoccupied BTK
All streptavidin pre-coated plates (R&D Systems, #CP004) are brought to room temperature while samples are lysing. Assay Buffer 1, 1×PBS+0.05% Tween 20+1% BSA is prepared and stored at 4° C. when not in use. Using this Assay Buffer, assay buffer+1× protease/phosphatase inhibitor cocktail (PICs) is prepared in the amount needed for all samples. Assay Buffer+PICs in the volume of 90 μL/well is added to the ELISA plate. Lysed blood sample (10 μL) is added to the ELISA plate. BTK recombinant protein dilutions are prepared in assay buffer+PICS for use as a μM). The standard is loaded into the ELISA plate at 100 μL/well, in duplicate. These samples and standards remain in the plate, sealed, overnight at 4° C. The following day, the plate is washed four times with 1× Wash Buffer (1×PBS+0.05% Tween 20) using a plate washer. The plate is inverted to expel all fluid each time and blotted on clean paper towels to remove remaining liquid. Assay Buffer 2 is prepared (1×PBS+0.05% Tween 20+0.05% BSA) and kept at 4° C. when not in use. […] Diluted a-BTK antibody is added at 100 μl/well. The plate is covered with adhesive film and incubated for 90 minutes at room temperature. The plate is washed four times with 1× Wash Buffer (1×PBS+0.05% Tween 20) using a plate washer. The plate is inverted to expel all fluid each time and blotted on clean paper towels to remove remaining liquid. […] The diluted antibody is added at 100 μl/well. The plate is covered with adhesive film and incubated for one hour at room temperature. The plate is washed four times with 1× Wash Buffer using a plate washer. The plate is inverted to expel all fluid each time and blotted on clean paper towels to remove remaining liquid. […] The plate is incubated at room temperature in the dark for −5-10 minutes. The reaction is stopped by adding 50 μl/well 2N sulfuric acid (H2SO4) (R&D Systems, #DY994). The plate is read in a plate reader at the wavelengths […] and 570 nm (correction wavelength). Using Graphpad Prism, an XY table+graph is created, listing 0-60 minutes as X axis and concentration as Y axis. A One Phase Decay model fit is applied to the data. Checking Results table, the K values are obtained and new XY table+graph are created. Concentration is assigned to the X axis and K values from first analysis are entered. The Michaelis-Menten equation is applied to the data.

BTK [2] = target: T1, BTK; test: Assay to determine activity against BTK (EZ reader, FLPeptide); type: biochemical; parameters: purchased Carna; conditions: ATP (1 mM), BTK (2 nM), room temperature for 90 minutes
Method: Solutions of compounds (test or control) in DMSO were prepared at the desired concentrations, and serially diluted to 11 concentrations by 3-fold dilution in 384pp-plate using TECAN EVO200. 20 nL of stock were transferred to 384 plate using Echo550. DMSO was used as vehicle control.
Two separate solutions were prepared—an ATP solution containing MgCl2 (10 mM), Brij-35 (0.01%), DTT (2 mM), BSA (0.05%), EGTA (1 mM), HEPE (pH7.5) (50 mM), FLPeptide (6 uM) and ATP (4 mM); and a BTK solution containing MgCl2 (10 mM), Brij-35 (0.01%), DTT (2 mM), BSA (0.05%), EGTA (1 mM), HEPE (pH7.5) (50 mM) and BTK (2.67 nM). […] (Note the final volume of each well was 20 uL containing MgCl2 (10 mM), Brij-35 (0.01%), DTT (2 mM), BSA (0.05%), EGTA (1 mM), HEPE (pH7.5) (50 mM), FLPeptide (1.5 uM), ATP (1 mM) and BTK (2 nM).
The plates were incubated at room temperature for 90 minutes and then stopping buffer added (75 uL, containing 0.5 M EDTA) to terminate the reaction. Samples from each well were analyzed using EZ reader. The % remaining activity was calculated using read conversion ratio (CR) according to the equation: […]
XLFit (equation 201) was used to calculate IC50s by floating both bottom and top.
With respect to BTK activity, Table 4 lists activity as follows: • “A” denotes an IC50 of less than 10 nM, • “B” denotes an IC50 of from 10 nM to less than 100 nM; and • “C” denotes and IC50 of 100 nM or more.

[3] = test system: BTK Activity in RAMOS B Cells; test: Assay to determine BTK activity in RAMOS B cells (anti-IgM, FLIPR Calcium 6); type: cell-based; conditions: Homo sapiens, Ramos, EC80 anti-IgM, FLIPR calcium read
Method: On the day before assay, Ramos B cells were plated in plating medium (RPMI1640 medium containing 1% FBS and 1× pencillin-streptomycin). On the day of the assay, 2× dye solution was prepared following the manual of the FLIRP Calcium 6 Assay Kit: Dilute the dye with assay buffer (20 mM HEPES in 1×HBSS, pH7.4); Add probenecid to the final concentration of 5 mM; vortex vigorously for 1-2 minutes. Cells were collected by centrifuging, and the pellet was resuspended in plating medium. After counting, cells were resuspended at a density of 3×10^6/ml in plating medium. Equal volume of 2× dye solution was added to the cell suspension. Cells were then plated at 20 μl/well into a 384-well poly-D-lysine coated plate. Plate was centrifuged at 1000 rpm for 3 minutes and then incubated at 37° C. for 2 hours followed by an additional 15-minute incubation at 25° C. Compounds were prepared at 3× concentration in dilution buffer (20 mM HEPES and 0.1% BSA in 1×HBSS, pH 7.4). Serially diluted compound was transferred from source plate to a 384-well compound plate by using an Echo 550 (Labcyte). 20 μl/well compound dilution buffer was added to the compound plate and mixed on plate shaker for 2 mins. 4×EC80 of Anti-IgM (Jackson ImmunoResearch) was prepared in dilution buffer and 20 μl/well was added to a new 384-well compound plate. After 60 mins of incubation at 25° C. in the dark; cell plate, compound plate containing 4×EC80 of anti-IgM and FLIPR tips were placed into FLIPR (Molecular Devices). 10 ul/well of 4×EC80 anti-IgM was transferred to the cell plate by FLIPR. Plates were read for 160 sec with 1 sec interval.
With respect to Ramos activity, Table 9 lists activity as follows: • “A” denotes an IC50 of less than 10 nM; • “B” denotes an IC50 of from 10 nM to less than 100 nM; and • “C” denotes and IC50 of 100 nM or more.

[4] = Plasma and total brain concentrations at 1 h post a single oral administration to female C57BL/6 mice; type: in vivo; conditions: mouse, 1 h post single oral 10 mg/kg, LC-MS/MS, read-out: Brain:plasma ratio
Method: Determination of Plasma and Total Brain Concentrations at 1 h Post a Single Oral Administration of Test Compound to Female C57BL/6 Mice
The appropriate amount of test article was dissolved 10% dimethylacetamide (DMA)/90% (20% hydroxypropyl-b-cyclodextrin (HP-β-CD) w/v in water to obtain a final concentration of 1 mg/mL for oral dosing. Sonication, vortex, and homogenization was used as needed. Three female C57BL/6 mice aged 7-9 weeks (20-30 grams) were dosed by oral gavage 10 mg/kg solution of the test article.
Concentrations of representative test compounds in the plasma and brain samples (using plasma and brain homogenate standard curve for all samples appropriately) were analyzed using LC-MS/MS. With respect to the brain:plasma ratio, Table 11 lists the results as follows: • “A” denotes a ratio >0.5; • “B” denotes a ratio between 0.1 and 0.5; and • “C” denotes a ratio <0.1.

T1 sequence (Q06187 whole entry): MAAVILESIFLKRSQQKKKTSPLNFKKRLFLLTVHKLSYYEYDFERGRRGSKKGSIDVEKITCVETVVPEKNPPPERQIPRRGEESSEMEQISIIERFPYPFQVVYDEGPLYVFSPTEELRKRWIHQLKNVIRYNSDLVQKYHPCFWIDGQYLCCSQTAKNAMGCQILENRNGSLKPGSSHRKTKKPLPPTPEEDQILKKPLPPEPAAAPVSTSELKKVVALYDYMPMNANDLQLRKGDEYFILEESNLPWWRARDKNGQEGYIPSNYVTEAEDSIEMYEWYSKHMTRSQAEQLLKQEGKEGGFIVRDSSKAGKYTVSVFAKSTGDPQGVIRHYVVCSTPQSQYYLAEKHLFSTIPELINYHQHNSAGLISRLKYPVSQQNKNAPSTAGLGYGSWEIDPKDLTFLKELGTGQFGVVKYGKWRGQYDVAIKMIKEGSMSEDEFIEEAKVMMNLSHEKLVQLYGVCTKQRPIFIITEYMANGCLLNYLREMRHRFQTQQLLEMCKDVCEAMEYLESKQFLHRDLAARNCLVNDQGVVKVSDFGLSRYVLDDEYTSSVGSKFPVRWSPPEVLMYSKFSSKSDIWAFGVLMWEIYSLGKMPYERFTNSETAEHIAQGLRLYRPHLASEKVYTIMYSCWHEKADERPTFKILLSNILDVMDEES

Row | Compound | BTK hWB Kinact/Ki (BTK [1]) | IC50 (BTK [2]) [nM] | IC50 [3] [nM] | Kp at 1 h [4] | kinact/KI (BTK [1]) [M⁻¹ s⁻¹]
1 | C=CC(=O)N1CCC2CCN(c3c(F)cc(C(N)=O)c4[nH]c(C)c(C)c34)CC21 (single isomer, unassigned) [Compound 32a, 4-(1-acryloyloctahydro-6H-pyrrolo[2,3-c]pyridin-6-yl)-5-fluoro-2,3-dimethyl-1H-indole-7-carboxamide] | A (a Kinact/Ki >10×10^−4 nM^−1 min^−1) | 10 to 100 | 10 to 100 |  | 
2 | CC#CC(=O)N1CCC[C@H]1c1nc(-c2ccc(C(=O)Nc3ccccn3)cc2)c2c(N)nccn12 [Acalabrutinib, reference compound] |  |  |  | < 0.1 | < 1670
3 | CC#CC(=O)N[C@H]1CCCN(c2c(F)cc(C(N)=O)c3[nH]c(C)c(C)c23)C1 [Branebrutinib, reference compound] |  |  |  | < 0.1 | > 16700
4 | C=CC(=O)N1CCC[C@H](c2c(F)cc(C(N)=O)c3[nH]c(C)c(Cl)c23)C1 [Compound 2b, (R)-4-(1-acryloylpiperidin-3-yl)-3-chloro-5-fluoro-2-methyl-1H-indole-7-carboxamide] |  | 10 to 100 | 10 to 100 |  | 1670 to 16700
5 | C=CC(=O)N1CCC=C(c2c(F)c(F)c(C(N)=O)c3[nH]c(C)c(Cl)c23)C1 [Compound 4, 4-(1-acryloyl-1,2,5,6-tetrahydropyridin-3-yl)-3-chloro-5,6-difluoro-2-methyl-1H-indole-7-carboxamide] |  | < 10 | < 10 |  | > 16700
6 | C=CC(=O)N1CCC[C@H](c2c(F)c(F)c(C(N)=O)c3[nH]c(C)c(Cl)c23)C1 [Compound 15, (R)-4-(1-acryloylpiperidin-3-yl)-3-chloro-5,6-difluoro-2-methyl-1H-indole-7-carboxamide] |  | 10 to 100 | 10 to 100 |  | > 16700
7 | C=CC(=O)N1CCc2c(cccc2-c2c(F)cc(C(N)=O)c3[nH]c(C)c(Cl)c23)C1 [Compound 20a, 4-(2-acryloyl-1,2,3,4-tetrahydroisoquinolin-5-yl)-3-chloro-5-fluoro-2-methyl-1H-indole-7-carboxamide] |  | < 10 | < 10 |  | < 1670
8 | CC#CC(=O)N[C@H]1C[C@H](F)CN(c2c(F)cc(C(N)=O)c3[nH]c(C)c(Cl)c23)C1 [Compound 28, 4-((3S,5S)-3-(but-2-ynamido)-5-fluoropiperidin-1-yl)-3-chloro-5-fluoro-2-methyl-1H-indole-7-carboxamide] |  | < 10 | < 10 |  | 1670 to 16700
9 | C=CC(=O)N1CCC2CCN(c3c(F)cc(C(N)=O)c4[nH]c(C)c(C)c34)CC21 (centres unmarked) [Compound 32, 4-(1-acryloyloctahydro-6H-pyrrolo[2,3-c]pyridin-6-yl)-5-fluoro-2,3-dimethyl-1H-indole-7-carboxamide] |  | 10 to 100 | 10 to 100 |  | < 1670
10 | C=CC(=O)N[C@H]1C[C@H](F)CN(c2c(F)cc(C(N)=O)c3[nH]c(C)c(C)c23)C1 [Compound 36, 4-((3S,5S)-3-acrylamido-5-fluoropiperidin-1-yl)-5-fluoro-2,3-dimethyl-1H-indole-7-carboxamide] |  | < 10 | < 10 |  | > 16700
11 | C=CC(=O)N1CCC[C@@H](n2nc(-c3ccc(Oc4ccccc4)cc3)c3c(N)ncnc32)C1 [Ibrutinib, reference compound] |  |  |  | < 0.1 | 
